# Experiments:
# [1] = tested on: Macrophage; assay: cells; settings: Mus musculus, 72 h
# Description: (§1) Cytotoxicity against mouse peritoneal Macrophage cells assessed as reduction in cell viability incubated for 3 days by fluorimetry
# [2] = tested on: Trypanosoma cruzi; assay: microbe, parasite or virus in culture; settings: Tulahuen CL2, MRC-5 SV2, 168 h
# Description: Antitrypanosomal activity against Trypanosoma cruzi Tulahuen CL2 amastigotes infected in human MRC5 SV2 cells incubated for 7 days by chlorophenol red beta-D-galactopyranoside substrate based spectrophotometric assay
# [3] = in vitro; settings: mouse, liver microsomes
# Description: Metabolic stability in mouse liver microsomes assessed as intrinsic clearance at 0.5 uM incubated for 30 mins by LC-MS/MS analysis
# [4] = in vitro; settings: mouse, peritoneal macrophages
# Description: as §1
# [5] = in vitro; settings: mouse, peritoneal macrophages; remark: listed apart in the source
# Description: Selectivity index, ratio of IC50 for mouse peritoneal macrophage to IC50 for Leishmania infantum MHOM/MA(BE)/67/ITMAP263 infected in mouse peritoneal macrophage
# [6] = tested on: Trypanosoma brucei; assay: microbe, parasite or virus in culture; settings: Squib 427, 72 h
# Description: Antitrypanosomal activity against Trypanosoma brucei Squib 427 assessed as reduction in parasite growth incubated for 72 hrs by resazurin dye based fluorimetric analysis
# [7] = tested on: Leishmania infantum; assay: microbe, parasite or virus in culture; settings: for IC50: MHOM/MA(BE)/67/ITMAP263, 120 h; for IC90: MHOM/MA(BE)/67/ITMAP263, in Mus musculus, 120 h
# Description: Antileishmanial activity against amastigote stage of Leishmania infantum MHOM/MA(BE)/67/ITMAP263 infected in mouse peritoneal macrophage assessed as parasite growth inhibition incubated for 5 days by Giemsa staining based assay
# [8] = in vitro; settings: human, MRC5 SV2 cells
# Description: Selectivity index, ratio of IC50 for human MRC5 SV2 cells to IC50 for Trypanosoma cruzi Tulahuen CL2 amastigotes infected in human MRC5 SV2 cells
# [9] = in vitro; settings: human, liver microsomes
# Description: Metabolic stability in human liver microsomes assessed as intrinsic clearance at 0.5 uM incubated for 30 mins by LC-MS/MS analysis
# [10] = cells; settings: Homo sapiens, MRC-5 SV2, 72 h
# Description: (§2) Cytotoxicity against human MRC5 SV2 cells assessed as reduction in cell viability incubated for 3 days by fluorimetry
# [11] = in vitro; settings: human, MRC5 SV2 cells; remark: listed apart in the source
# Description: as §2
# [12] = tested on: Trypanosoma brucei rhodesiense; assay: microbe, parasite or virus in culture; settings: STIB900, 72 h
# Description: Antiprotozoal activity against Trypanosoma brucei rhodesiense STIB900 trypomastigotes incubated for 72 hrs by resazurin dye based fluorimetric analysis
# [13] = physchem; settings: buffer, pH 7.4
# Description: Lipophilicity, logD of compound at pH 7.4 by HPLC analysis
# [14] = in vitro; settings: human, MRC5 SV2 cells; remark: listed apart in the source
# Description: Selectivity index, ratio of IC50 for human MRC5 SV2 cells to IC50 for Trypanosoma brucei rhodesiense STIB900 trypomastigotes
# [15] = in vitro; settings: mouse, liver microsomes; remark: listed apart in the source
# Description: Metabolic stability in mouse liver microsomes assessed as fraction unbound at 0.5 uM incubated for 30 mins by LC-MS/MS analysis
# [16] = in vitro; settings: PAMPA
# Description: Effective permeability of compound by PAMPA assay
Compound,"CLint scaled at 0.5 h, 0.5 µM [3]","microsomal CLint at 0.5 h, 0.5 µM [3]",IC90 at 72 h [4],IC50 [6],IC90 [6],IC50 [7],IC90 [7],"CLint scaled at 0.5 h, 0.5 µM [9]","microsomal CLint at 0.5 h, 0.5 µM [9]",IC90 at 72 h [11],IC50 [12],IC90 [12],logD [13],Papp [16],IC50 [1],IC50 [2],IC90 [2],selectivity ratio [8],IC50 [10],selectivity ratio [14],other results
CC(C)c1cc(C(=O)N2CCCC(O)(c3cc4ncccc4[nH]3)C2)on1 (stereo unspecified),616 to 2560 mL/min/kg,155 to 600 µL/min/mg,64 µM,64 µM,64 µM,49.3 to 64 µM,64 µM,31 to 38.5 mL/min/kg,23 to 26.6 µL/min/mg,64 µM,51.8 to 64 µM,64 µM,2.26,,64 µM,8.35 to 58.5 µM,15.6 to 64 µM,1.9,56.5 to 64 µM,,selectivity ratio [5]: 1.14
O=C(c1ccc(F)cc1)N1CCCC(c2cc3nc(C(F)(F)F)ccc3[nH]2)C1 (stereo unspecified),1110 mL/min/kg,247 µL/min/mg,64 µM,64 µM,64 µM,64 µM,64 µM,118 mL/min/kg,77.6 µL/min/mg,64 µM,28.7 µM,57.5 µM,3.88,12.2 ×10⁻⁶ cm/s,64 µM,64 µM,64 µM,,64 µM,2.19,"fraction unbound at 0.5 h, 0.5 µM [15]: 0.713"
O=C(c1cc(C(F)(F)F)no1)N1CCCC(c2cc3ncc(Br)cc3[nH]2)C1 (stereo unspecified),2800 mL/min/kg,431 µL/min/mg,64 µM,64 µM,64 µM,57 µM,64 µM,193 mL/min/kg,87.8 µL/min/mg,64 µM,22.9 µM,62.7 µM,4.27,7.99 ×10⁻⁶ cm/s,64 µM,64 µM,64 µM,,64 µM,2.8,"fraction unbound at 0.5 h, 0.5 µM [15]: 0.491"
O=C(Nc1ccc(-c2cc3ncccc3[nH]2)cc1)c1ccccc1,≥ 597 mL/min/kg,187 µL/min/mg,59.7 µM,64 µM,64 µM,45.6 µM,60.5 µM,≥ 105 mL/min/kg,97.5 µL/min/mg,64 µM,44.6 µM,64 µM,3.86,0.545 ×10⁻⁶ cm/s,45.3 µM,25.2 µM,64 µM,2.54,64 µM,1.45,
O=C(c1cc(C(F)(F)F)no1)N1CCCC(c2cc3ncc(-c4ccccc4)cc3[nH]2)C1 (stereo unspecified),,,59.7 µM,64 µM,64 µM,35.1 µM,59.6 µM,1350 mL/min/kg,196 µL/min/mg,64 µM,64 µM,64 µM,4.59,0.307 ×10⁻⁶ cm/s,45.3 µM,64 µM,64 µM,,64 µM,,"fraction unbound at 0.5 h, 0.5 µM [15]: 0.157; selectivity ratio [5]: 1.79"
O=C(Nc1cccc(-c2cc3ncccc3[nH]2)c1)c1ccccc1,≥ 1670 mL/min/kg,522 µL/min/mg,64 µM,64 µM,64 µM,52.5 µM,64 µM,≥ 392 mL/min/kg,363 µL/min/mg,64 µM,4.6 µM,23.7 µM,3.88,0.606 ×10⁻⁶ cm/s,64 µM,2.08 µM,3.8 µM,30.7,64 µM,13.9,
CCC(=O)N1CCCC(c2nc3ncc(Cl)cc3[nH]2)C1 (stereo unspecified),472 mL/min/kg,128 µL/min/mg,64 µM,64 µM,64 µM,64 µM,64 µM,< 28.3 mL/min/kg,< 23 µL/min/mg,64 µM,41.9 µM,64 µM,2.17,9.01 ×10⁻⁶ cm/s,64 µM,64 µM,64 µM,,64 µM,1.53,"fraction unbound at 0.5 h, 0.5 µM [15]: 0.866"
O=C(c1ccccc1)N1C=C(c2cc3ncccc3[nH]2)CCC1,≥ 3320 mL/min/kg,1040 µL/min/mg,64 µM,64 µM,64 µM,34.9 µM,64 µM,≥ 257 mL/min/kg,238 µL/min/mg,64 µM,64 µM,64 µM,2.96,2.99 ×10⁻⁶ cm/s,64 µM,0.866 µM,16 µM,73.8,64 µM,,selectivity ratio [5]: 1.84
O=C(c1ccc(F)cc1)N1CCCC(c2cc3nc(N4CCCC4)ccc3[nH]2)C1 (stereo unspecified),1960 to 2410 mL/min/kg,441 to 444 µL/min/mg,59.7 µM,43.4 µM,60.8 µM,41.8 µM,59.6 µM,92.5 mL/min/kg,50.1 µL/min/mg,64 µM,8.03 µM,14.1 µM,3.45,0.152 to 0.228 ×10⁻⁶ cm/s,45.3 µM,8.33 µM,31 µM,5.86,48.7 µM,6.07,"fraction unbound at 0.5 h, 0.5 µM [15]: 0.586 to 0.722"

# The next lines start with results.
"CLint scaled at 0.5 h, 0.5 µM [3]","microsomal CLint at 0.5 h, 0.5 µM [3]",IC90 at 72 h [4],IC50 [6],IC90 [6],IC50 [7],IC90 [7],"CLint scaled at 0.5 h, 0.5 µM [9]","microsomal CLint at 0.5 h, 0.5 µM [9]",IC90 at 72 h [11],IC50 [12],IC90 [12],logD [13],Papp [16],Compound,IC50 [1],IC50 [2],IC90 [2],selectivity ratio [8],IC50 [10],selectivity ratio [14],other results
2330 mL/min/kg,449 µL/min/mg,64 µM,64 µM,64 µM,64 µM,64 µM,323 mL/min/kg,184 µL/min/mg,64 µM,40.4 µM,60.9 µM,3.42,3.45 ×10⁻⁶ cm/s,O=C(c1cc(C(F)(F)F)no1)N1CCCC(c2cc3ncccc3[nH]2)C1 (stereo unspecified),64 µM,4.08 µM,45.3 µM,15.7,64 µM,1.61,"fraction unbound at 0.5 h, 0.5 µM [15]: 0.615"
2150 mL/min/kg,403 µL/min/mg,64 µM,64 µM,64 µM,64 µM,64 µM,321 mL/min/kg,177 µL/min/mg,64 µM,34.7 µM,64 µM,3.4,2.97 ×10⁻⁶ cm/s,CC(C)(C)c1cc(C(=O)N2CCCC(c3cc4ncccc4[nH]3)C2)on1 (stereo unspecified),64 µM,2.18 µM,64 µM,29.4,64 µM,1.83,"fraction unbound at 0.5 h, 0.5 µM [15]: 0.598"
9620 mL/min/kg,,32 µM,20.5 µM,29.9 µM,9.59 µM,32 µM,235 mL/min/kg,,29.9 µM,9.55 µM,25.6 µM,,,COc1ccc(OC)c2[nH]c(C(=O)N3CCCC(c4cc5ncccc5[nH]4)C3)cc12 (stereo unspecified),32 µM,1.2 µM,6.67 µM,18.9,22.6 µM,2.36,selectivity ratio [5]: 2.35
1390 mL/min/kg,294 µL/min/mg,64 µM,64 µM,64 µM,64 µM,64 µM,125 mL/min/kg,78.4 µL/min/mg,64 µM,2.46 µM,15.1 µM,3.52,15 ×10⁻⁶ cm/s,O=C(c1ccc(F)cc1)N1CCCC(c2cc3nc(Cl)ccc3[nH]2)C1 (stereo unspecified),64 µM,64 µM,64 µM,,64 µM,26,"fraction unbound at 0.5 h, 0.5 µM [15]: 0.676"
2420 mL/min/kg,,29.9 µM,19.6 µM,29.5 µM,18.6 µM,29.8 µM,838 mL/min/kg,,29.5 µM,7.33 µM,24.4 µM,,,COc1cc(OC)c2cc(C(=O)N3CCCC(c4cc5ncccc5[nH]4)C3)[nH]c2c1 (stereo unspecified),22.6 µM,1.03 µM,3.13 µM,18.8,19.5 µM,2.65,selectivity ratio [5]: 1.07
1610 mL/min/kg,467 µL/min/mg,64 µM,64 µM,64 µM,37.1 µM,64 µM,39.5 mL/min/kg,33.8 µL/min/mg,64 µM,41.9 µM,64 µM,2.86,3.17 ×10⁻⁶ cm/s,O=C(c1cc(C2CC2)no1)N1CCCC(c2cc3ncccc3[nH]2)C1 (stereo unspecified),64 µM,4.05 µM,13.8 µM,15.8,64 µM,1.56,"fraction unbound at 0.5 h, 0.5 µM [15]: 0.926; selectivity ratio [5]: 1.73"
